Test results as given in PMC4351682, “Formononetin inhibits enterovirus 71 replication by regulating COX- 2/PGE2 expression” (Virology Journal, 2015).

Columns and labels:
COX-2 = assay: Western blot of EV71-induced COX-2 expression in SK-N-SH cells; format: cell-based; settings: formononetin 14.91 μmol/L, pirodavir 1.08 μmol/L, 24 h
Procedure: Figure 4 Formononetin could inhibit EV71-induced COX-2 expression and PGE 2 production. (A) Formononetin but not pirodavir can reduce the expression of COX-2 induced by EV71 infection. SK-N-SH cells were mock-infected or infected with 480 pfu/well of EV71 (SHZH98) for 2 h. The cells were then treated with formononetin (14.91 μmol/L) and pirodavir (1.08 μmol/L), respectively, for 24 h. The cells were harvested and EV71-VP1 and COX-2 were examined by western blot. (B) Formononetin but not pirodavir can reduce the release of PGE2 stimulated by EV71 infection. SK-N-SH cells were pretreated with formononetin (14.91 μmol/L) or pirodavir (1.08 μmol/L) for 24 h. The cells were infected with 4.8 × 10^5 pfu/well of EV71 (SHZH98). At 24 h p.i., the culture supernatants were harvested for PGE2 release assay. Cells were lysed in the M-PER mammalian protein extraction reagent (Thermo, Rockford, IL) containing halt protease inhibitor single-use cocktail (Thermo). The protein concentration was determined by the BCA reagents (Thermo). About 10 μg proteins were denatured and applied to sodium dodecyl sulfate-polyacrylamide gel electrophoresis (SDS-PAGE). The electrophoresis products were transferred to a polyvinyl idenefluoride (PVDF) film and PVDF membranes were then incubated at room temperature with specific primary antibody. […]

EV71 SHZH98 strain [1] = assay: CPE inhibition assay for anti-EV71 in Vero cells; format: cell-based, enterovirus 71; settings: Enterovirus A, 48 h
Procedure: (§1) The anti-EV71 activity of formononetin was assayed by CPE inhibition method. Briefly, cells (3 × 10^4 cells/well) were plated into 96-well culture plates for incubation of 24 h. The medium was then removed and cells were infected with EV71 of 80 pfu/well. Then, various concentrations of formononetin were supplemented for incubation of another 48 h. […] The selectivity index (SI) was calculated as the ratio of TC50/IC50 [19].

ERK = assay: Western blot of EV71-induced phosphorylation of ERK in SK-N-SH cells; format: cell-based; settings: pretreatment 24 h, formononetin 14.91 μmol/L, pirodavir 1.08 μmol/L, EV71 15 min
Procedure: Figure 3 Formononetin but not pirodavir reduces the phosphorylation of ERK (A), p38 (B), and JNK (C) induced by EV71 infection. SK-N-SH cells (9 × 10^5 cells/well) were plated into 6-well culture plates. The cells were then pretreated with formononetin (14.91 μmol/L) and pirodavir (1.08 μmol/L), respectively. After 24 h, the cells were mock-infected or infected with 4.8 × 10^5 pfu/well of EV71 (SHZH98) for 15 min (A), 10 min (B), and 30 min (C), respectively. The cells were harvested and ERK (A) p-ERK (A), p38 (B), p-p38 (B), JNK (C), and p-JNK (C) were detected by western blot.
Cells were lysed in the M-PER mammalian protein extraction reagent (Thermo, Rockford, IL) containing halt protease inhibitor single-use cocktail (Thermo). The protein concentration was determined by the BCA reagents (Thermo). About 10 μg proteins were denatured and applied to sodium dodecyl sulfate-polyacrylamide gel electrophoresis (SDS-PAGE). The electrophoresis products were transferred to a polyvinyl idenefluoride (PVDF) film and PVDF membranes were then incubated at room temperature with specific primary antibody. After a standard washing, membranes were incubated with horse radish peroxidase (HRP)-labeled secondary antibody. The assay developed using a chemiluminescent substrate. […]

EV71 SHZH98 strain [2] = assay: CPE inhibition assay for anti-EV71 in SK-N-SH cells; format: cell-based, enterovirus 71; settings: Enterovirus A, 48 h
Procedure: as §1

CVB2 (strain Ohio-1) = assay: CPE inhibition assay for anti-CVBs, CVB2 in Vero cells; format: cell-based, coxsackievirus B2; settings: Enterovirus B, CVB2, 100 TCID50, Vero cells
Procedure: (§2) The anti-virus activity of formononetin on CVBs was also assayed by CPE method. Briefly, cells (3 × 10^4 cells/well) were plated into 96-well culture plates for incubation of 24 h. The medium was removed and cells were infected with 100 TCID50 of CVB2, CVB6 or CVB3. Then, various concentrations of formononetin were supplemented for incubation of another 48 h. The IC50 was determined by Reed and Muench method. The SI was calculated as the ratio of TC50/IC50 [19].

EV71 strain BrCr = assay: CPE inhibition assay, EV71 strain BrCr in Vero cells; format: cell-based, enterovirus 71; settings: Enterovirus A
Procedure: (§3) The anti-EV71 activity of formononetin was assayed by CPE inhibition method. Briefly, cells (3 × 10^4 cells/well) were plated into 96-well culture plates for incubation of 24 h. The medium was then removed and cells were infected with EV71 of 80 pfu/well. Then, various concentrations of formononetin were supplemented for incubation of another 48 h. The IC50 defined as the minimal concentration of inhibitor required to inhibit 50% of CPE was determined by Reed & Muench method. The selectivity index (SI) was calculated as the ratio of TC50/IC50 [19].

CVB6 (strain Schmitt) = assay: CPE inhibition assay for anti-CVBs, CVB6 in Vero cells; format: cell-based, coxsackievirus B6; settings: Enterovirus B, CVB6, 100 TCID50, Vero cells
Procedure: as §2

Vero cells = assay: Cytotoxicity assay (MTS) in Vero cells; format: cell-based; settings: 3 days
Procedure: Cytotoxic effect of formononetin on Vero or SK-N-SH cells was assayed by MTS (promega) assay. Briefly, cells (3 × 10^4 cells/well) were seeded into 96-well culture plates and were incubated overnight. Then, the medium was removed and different concentrations of formononetin were applied in triplicate. After 3 days’ incubation, the cytotoxicity of formononetin was determined by MTS assay. The TC50 was defined as the concentration that inhibits 50% cellular growth in comparison with the controls and the TC0 was defined as the maximal non-toxicity dose.

EV71 strain JS-52 = assay: CPE inhibition assay, EV71 strain JS-52 in Vero cells; format: cell-based, enterovirus 71; settings: Enterovirus A, EV71 JS-52, Vero cells
Procedure: as §3

Row | SMILES | EV71-stimulated COX-2 expression (COX-2) | IC50 (EV71 SHZH98 strain [1]) [µM] | EV71-stimulated phosphorylation of ERK (ERK) | IC50 (EV71 SHZH98 strain [2]) [µM] | IC50 (CVB2 (strain Ohio-1)) [µM] | IC50 (EV71 strain BrCr) [µM] | IC50 (CVB6 (strain Schmitt)) [µM] | TC0 (maximal non-toxicity dose) (Vero cells) [µmol/L] | TC50 (50% toxicity concentration) (Vero cells) [µM] | TC0 (maximal non-toxicity dose) (Vero cells; listed as formononetin) [µmol/L] | TC50 (50% toxicity concentration) (Vero cells; listed as formononetin) [µM] | IC50 (EV71 strain JS-52) [µM]
1 | CCOC(=O)c1ccc(OCCC2CCN(c3ccc(C)nn3)CC2)cc1 [Pirodavir, reference compound] | not | 0.38 ± 0.08 | not | 0.23 ± 0.04 | – | – | – | – | – | – | – | –
2 | COc1ccc(-c2coc3cc(O)ccc3c2=O)cc1 [Formononetin] | inhibited | 3.45 ± 0.55 | significantly attenuated | 3.98 ± 0.8 | 9.56 ± 2.23 | 6.47 ± 4.4 | 5.33 ± 1.48 | 41.42 ± 0 | 149.38 ± 12.15 | 41.42 | 149.38 | 17.9 ± 8.51
